Laboratory results published in ChEMBL document CHEMBL1201861, “Genomics of Drug Sensitity in Cancer screening data, Wellcome Trust Sanger Institute”.

What follows are molecules tested on RPMI-8866 (assay: cells). Settings: Homo sapiens, RPMI-8866.
Type: functional, cell-based, Homo sapiens
Description: SANGER: Inhibition of human RPMI-8866 cell growth in a cell viability assay.

Question: For `COc1ccc(-c2cc3nccn3c(Nc3ncccc3C(N)=O)n2)cc1OC`, which IC50 is on record?
Answer: > 8 µM

Each molecule was assayed on ACN (assay: cells). Settings: Homo sapiens, ACN.
Type: functional, cell-based, Homo sapiens
Description: SANGER: Inhibition of human ACN cell growth in a cell viability assay.

Question: How did the IC50 turn out when `COc1ccc(-c2cc3nccn3c(Nc3ncccc3C(N)=O)n2)cc1OC` was run?
Answer: > 8 µM

The molecules below were run on NCI-H1650 (assay: cells). Settings: Homo sapiens, NCI-H1650.
Type: functional, cell-based, Homo sapiens
Description: SANGER: Inhibition of human NCI-H1650 cell growth in a cell viability assay.

Question: `COc1ccc(-c2cc3nccn3c(Nc3ncccc3C(N)=O)n2)cc1OC` was tested. Which IC50 did it give?
Answer: > 8 µM

What follows are molecules tested on IA-LM (assay: cells). Settings: Homo sapiens.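 Note: cell viability assay measuring growth inhibition of human IA-LM cells.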
Type: functional, cell-based
Description: SANGER: Inhibition of human IA-LM cell growth in a cell viability assay.

Question: How did the IC50 turn out when `COc1ccc(-c2cc3nccn3c(Nc3ncccc3C(N)=O)n2)cc1OC` was run?
Answer: 2.71 µM

These molecules were tested on NCI-H720 (assay: cells). Settings: Homo sapiens, NCI-H720.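 Note: growth inhibition of human NCI-H720 cells determined by a cell viability assay.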
Type: functional, cell-based, Homo sapiens
Description: SANGER: Inhibition of human NCI-H720 cell growth in a cell viability assay.

Question: `COc1ccc(-c2cc3nccn3c(Nc3ncccc3C(N)=O)n2)cc1OC` was tested. Which IC50 did it give?
Answer: > 8 µM

Each molecule was assayed on DOHH-2 (assay: cells). Settings: Homo sapiens, DOHH-2.
Type: functional, cell-based, Homo sapiens
Description: SANGER: Inhibition of human DOHH-2 cell growth in a cell viability assay.

Question: `COc1ccc(-c2cc3nccn3c(Nc3ncccc3C(N)=O)n2)cc1OC` was tested. Which IC50 did it give?
Answer: 2.03 µM

What follows are molecules tested on 697 (assay: cells). Settings: Homo sapiens.
Type: functional, cell-based, Homo sapiens
Description: SANGER: Inhibition of human 697 cell growth in a cell viability assay.

Question: For `COc1ccc(-c2cc3nccn3c(Nc3ncccc3C(N)=O)n2)cc1OC`, which IC50 is on record?
Answer: 0.582 µM

Each molecule was assayed on MZ7-mel (assay: cells). Settings: Homo sapiens, MZ7-mel.
Type: functional, cell-based, Homo sapiens
Description: SANGER: Inhibition of human MZ7-mel cell growth in a cell viability assay.

Question: With `COc1ccc(-c2cc3nccn3c(Nc3ncccc3C(N)=O)n2)cc1OC` as the molecule, how does the IC50 read?
Answer: > 8 µM

Each molecule was assayed on NCI-H226 (assay: cells). Settings: Homo sapiens, NCI-H226.
Type: functional, cell-based, Homo sapiens
Description: SANGER: Inhibition of human NCI-H226 cell growth in a cell viability assay.

Question: For `COc1ccc(-c2cc3nccn3c(Nc3ncccc3C(N)=O)n2)cc1OC`, which IC50 is on record?
Answer: 4.03 µM

These molecules were tested on 8-MG-BA (assay: cells). Settings: Homo sapiens, 8-MG-BA.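 Note: growth inhibition of 8-MG-BA cells, read out with a cell viability assay.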
Type: functional, cell-based, Homo sapiens
Description: SANGER: Inhibition of human 8-MG-BA cell growth in a cell viability assay.

Question: How did the IC50 turn out when `COc1ccc(-c2cc3nccn3c(Nc3ncccc3C(N)=O)n2)cc1OC` was run?
Answer: > 8 µM

Each molecule was assayed on Mo (assay: cells). Settings: Homo sapiens, Mo.
Type: functional, cell-based, Homo sapiens
Description: SANGER: Inhibition of human Mo-T cell growth in a cell viability assay.

Question: How did the IC50 turn out when `COc1ccc(-c2cc3nccn3c(Nc3ncccc3C(N)=O)n2)cc1OC` was run?
Answer: 4.96 µM

The molecules below were run on NCI-N87 (assay: cells). Settings: Homo sapiens.
Type: functional, cell-based
Description: SANGER: Inhibition of human NCI-N87 cell growth in a cell viability assay.

Question: `COc1ccc(-c2cc3nccn3c(Nc3ncccc3C(N)=O)n2)cc1OC` was tested. Which IC50 did it give?
Answer: > 8 µM

The molecules below were run on NH-12 (assay: cells). Settings: Homo sapiens, NH-12.
Type: functional, cell-based, Homo sapiens
Description: SANGER: Inhibition of human NH-12 cell growth in a cell viability assay.

Question: For `COc1ccc(-c2cc3nccn3c(Nc3ncccc3C(N)=O)n2)cc1OC`, which IC50 is on record?
Answer: 2.49 µM

What follows are molecules tested on DoTc2-4510 (assay: cells). Settings: Homo sapiens.
Type: functional, cell-based

Question: With `COc1ccc(-c2cc3nccn3c(Nc3ncccc3C(N)=O)n2)cc1OC` as the molecule, how does the IC50 read?
Answer: 1.06 µM

What follows are molecules tested on no-10 (assay: cells). Settings: Homo sapiens.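 Note: growth inhibition of no-10 cells, read out with a cell viability assay.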
Type: functional, cell-based, Homo sapiens
Description: SANGER: Inhibition of human no-10 cell growth in a cell viability assay.

Question: For `COc1ccc(-c2cc3nccn3c(Nc3ncccc3C(N)=O)n2)cc1OC`, which IC50 is on record?
Answer: > 8 µM

Each molecule was assayed on ONS-76 (assay: cells). Settings: Homo sapiens, ONS-76.
Type: functional, cell-based, Homo sapiens
Description: SANGER: Inhibition of human ONS-76 cell growth in a cell viability assay.

Question: With `COc1ccc(-c2cc3nccn3c(Nc3ncccc3C(N)=O)n2)cc1OC` as the molecule, how does the IC50 read?
Answer: > 8 µM

These molecules were tested on A498 (assay: cells). Settings: Homo sapiens, A498.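 Note: growth inhibition of human A498 cells, read out with a cell viability assay.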
Type: functional, cell-based, Homo sapiens
Description: SANGER: Inhibition of human A498 cell growth in a cell viability assay.

Question: How did the IC50 turn out when `COc1ccc(-c2cc3nccn3c(Nc3ncccc3C(N)=O)n2)cc1OC` was run?
Answer: > 8 µM

What follows are molecules tested on OS-RC-2 (assay: cells). Settings: Homo sapiens, OS-RC-2.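 Note: growth inhibition of human OS-RC-2 cells, measured by a cell viability assay.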
Type: functional, cell-based, Homo sapiens
Description: SANGER: Inhibition of human OS-RC-2 cell growth in a cell viability assay.

Question: `COc1ccc(-c2cc3nccn3c(Nc3ncccc3C(N)=O)n2)cc1OC` was tested. Which IC50 did it give?
Answer: 1.17 µM

What follows are molecules tested on BB30-HNC (assay: cells). Settings: Homo sapiens, BB30-HNC.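 Note: growth inhibition of the cultured cell line, read out by a cell viability assay.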
Type: functional, cell-based, Homo sapiens
Description: SANGER: Inhibition of human BB30-HNC cell growth in a cell viability assay.

Question: Which IC50 does the source give for `COc1ccc(-c2cc3nccn3c(Nc3ncccc3C(N)=O)n2)cc1OC` here?
Answer: 2.82 µM

These molecules were tested on SK-UT-1 (assay: cells). Settings: Homo sapiens, SK-UT-1.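 Note: growth inhibition of SK-UT-1 cells, measured by a cell viability assay.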
Type: functional, cell-based, Homo sapiens
Description: SANGER: Inhibition of human SK-UT-1 cell growth in a cell viability assay.

Question: `COc1ccc(-c2cc3nccn3c(Nc3ncccc3C(N)=O)n2)cc1OC` was tested. Which IC50 did it give?
Answer: 6.24 µM

The molecules below were run on IST-SL1 (assay: cells). Settings: Homo sapiens, IST-SL1.
Type: functional, cell-based, Homo sapiens
Description: SANGER: Inhibition of human IST-SL1 cell growth in a cell viability assay.

Question: With `COc1ccc(-c2cc3nccn3c(Nc3ncccc3C(N)=O)n2)cc1OC` as the molecule, how does the IC50 read?
Answer: 7.98 µM

The molecules below were run on KURAMOCHI (assay: cells). Settings: Homo sapiens, KURAMOCHI.
Type: functional, cell-based, Homo sapiens
Description: SANGER: Inhibition of human KURAMOCHI cell growth in a cell viability assay.

Question: How did the IC50 turn out when `COc1ccc(-c2cc3nccn3c(Nc3ncccc3C(N)=O)n2)cc1OC` was run?
Answer: 7.41 µM

Each molecule was assayed on LS-513 (assay: cells). Settings: Homo sapiens, LS-513.
Type: functional, cell-based, Homo sapiens
Description: SANGER: Inhibition of human LS-513 cell growth in a cell viability assay.

Question: For `COc1ccc(-c2cc3nccn3c(Nc3ncccc3C(N)=O)n2)cc1OC`, which IC50 is on record?
Answer: > 8 µM

These molecules were tested on HD-MY-Z (assay: cells). Settings: Homo sapiens, HD-MY-Z.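 Note: growth inhibition of HD-MY-Z cells, read out with a cell viability assay.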
Type: functional, cell-based, Homo sapiens
Description: SANGER: Inhibition of human HD-MY-Z cell growth in a cell viability assay.

Question: With `COc1ccc(-c2cc3nccn3c(Nc3ncccc3C(N)=O)n2)cc1OC` as the molecule, how does the IC50 read?
Answer: > 8 µM

Each molecule was assayed on LAMA-84 (assay: cells). Settings: Homo sapiens, LAMA-84.
Type: functional, cell-based, Homo sapiens
Description: SANGER: Inhibition of human LAMA-84 cell growth in a cell viability assay.

Question: With `COc1ccc(-c2cc3nccn3c(Nc3ncccc3C(N)=O)n2)cc1OC` as the molecule, how does the IC50 read?
Answer: > 8 µM

The molecules below were run on MV4-11 (assay: cells). Settings: Homo sapiens, MV4-11.
Type: functional, cell-based, Homo sapiens, MV-4-11
Description: SANGER: Inhibition of human MV-4-11 cell growth in a cell viability assay.

Question: With `COc1ccc(-c2cc3nccn3c(Nc3ncccc3C(N)=O)n2)cc1OC` as the molecule, how does the IC50 read?
Answer: < 0.0312 µM

What follows are molecules tested on JAR (assay: cells). Settings: Homo sapiens, JAR.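 Note: growth inhibition of human JAR cells determined with a cell viability assay.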
Type: functional, cell-based, Homo sapiens
Description: SANGER: Inhibition of human JAR cell growth in a cell viability assay.

Question: `COc1ccc(-c2cc3nccn3c(Nc3ncccc3C(N)=O)n2)cc1OC` was tested. Which IC50 did it give?
Answer: > 8 µM

What follows are molecules tested on NCI-H1155 (assay: cells). Settings: Homo sapiens, NCI-H1155.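 Note: cell growth inhibition measured by a viability assay.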
Type: functional, cell-based, Homo sapiens
Description: SANGER: Inhibition of human NCI-H1155 cell growth in a cell viability assay.

Question: Which IC50 does the source give for `COc1ccc(-c2cc3nccn3c(Nc3ncccc3C(N)=O)n2)cc1OC` here?
Answer: > 8 µM

What follows are molecules tested on JVM-2 (assay: cells). Settings: Homo sapiens, JVM-2.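 Note: growth inhibition of JVM-2 cells determined by a cell viability assay.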
Type: functional, cell-based, Homo sapiens
Description: SANGER: Inhibition of human JVM-2 cell growth in a cell viability assay.

Question: For `COc1ccc(-c2cc3nccn3c(Nc3ncccc3C(N)=O)n2)cc1OC`, which IC50 is on record?
Answer: > 8 µM

These molecules were tested on MONO-MAC-6 (assay: cells). Settings: Homo sapiens, MONO-MAC-6.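 Note: cell viability assay measuring growth inhibition of human MONO-MAC-6 cells.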
Type: functional, cell-based, Homo sapiens
Description: SANGER: Inhibition of human MONO-MAC-6 cell growth in a cell viability assay.

Question: For `COc1ccc(-c2cc3nccn3c(Nc3ncccc3C(N)=O)n2)cc1OC`, which IC50 is on record?
Answer: 0.963 µM

The molecules below were run on ES4 (assay: cells). Settings: Homo sapiens, ES4.
Type: functional, cell-based, Homo sapiens
Description: SANGER: Inhibition of human ES4 cell growth in a cell viability assay.

Question: `COc1ccc(-c2cc3nccn3c(Nc3ncccc3C(N)=O)n2)cc1OC` was tested. Which IC50 did it give?
Answer: 1.24 µM

The molecules below were run on HCC2157 (assay: cells). Settings: Homo sapiens, HCC2157.
Type: functional, cell-based, Homo sapiens
Description: SANGER: Inhibition of human HCC2157 cell growth in a cell viability assay.

Question: For `COc1ccc(-c2cc3nccn3c(Nc3ncccc3C(N)=O)n2)cc1OC`, which IC50 is on record?
Answer: > 8 µM

What follows are molecules tested on L-363 (assay: cells). Settings: Homo sapiens, L-363.
Type: functional, cell-based, Homo sapiens
Description: SANGER: Inhibition of human L-363 cell growth in a cell viability assay.

Question: With `COc1ccc(-c2cc3nccn3c(Nc3ncccc3C(N)=O)n2)cc1OC` as the molecule, how does the IC50 read?
Answer: 2.93 µM

The molecules below were run on SBC-1 (assay: cells). Settings: Homo sapiens, SBC-1.
Type: functional, cell-based, Homo sapiens
Description: SANGER: Inhibition of human SBC-1 cell growth in a cell viability assay.

Question: Which IC50 does the source give for `COc1ccc(-c2cc3nccn3c(Nc3ncccc3C(N)=O)n2)cc1OC` here?
Answer: > 8 µM

What follows are molecules tested on C8166 (assay: cells). Settings: Homo sapiens, C8166.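 Note: growth inhibition of human C8166 cells measured by a cell viability assay.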
Type: functional, cell-based, Homo sapiens
Description: SANGER: Inhibition of human C8166 cell growth in a cell viability assay.

Question: How did the IC50 turn out when `COc1ccc(-c2cc3nccn3c(Nc3ncccc3C(N)=O)n2)cc1OC` was run?
Answer: 2.2 µM

Each molecule was assayed on LB2241-RCC (assay: cells). Settings: Homo sapiens, LB2241-RCC.
Type: functional, cell-based, Homo sapiens
Description: SANGER: Inhibition of human LB2241-RCC cell growth in a cell viability assay.

Question: Which IC50 does the source give for `COc1ccc(-c2cc3nccn3c(Nc3ncccc3C(N)=O)n2)cc1OC` here?
Answer: 4.93 µM

The molecules below were run on HCE-T (assay: cells). Settings: Homo sapiens, HCE-T.
Type: functional, cell-based, Homo sapiens
Description: SANGER: Inhibition of human HCE-T cell growth in a cell viability assay.

Question: How did the IC50 turn out when `COc1ccc(-c2cc3nccn3c(Nc3ncccc3C(N)=O)n2)cc1OC` was run?
Answer: > 8 µM

These molecules were tested on SNU-5 (assay: cells). Settings: Homo sapiens, SNU-5.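 Note: cell viability readout used to measure growth inhibition in human NCI-SNU-5 cells.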
Type: functional, cell-based, Homo sapiens
Description: SANGER: Inhibition of human NCI-SNU-5 cell growth in a cell viability assay.

Question: Which IC50 does the source give for `COc1ccc(-c2cc3nccn3c(Nc3ncccc3C(N)=O)n2)cc1OC` here?
Answer: > 8 µM

Each molecule was assayed on IST-MES1 (assay: cells). Settings: Homo sapiens, IST-MES1.
Type: functional, cell-based, Homo sapiens
Description: SANGER: Inhibition of human IST-MES1 cell growth in a cell viability assay.

Question: `COc1ccc(-c2cc3nccn3c(Nc3ncccc3C(N)=O)n2)cc1OC` was tested. Which IC50 did it give?
Answer: > 8 µM

Each molecule was assayed on NCI-H23 (assay: cells). Settings: Homo sapiens, NCI-H23.
Type: functional, cell-based, Homo sapiens
Description: SANGER: Inhibition of human NCI-H23 cell growth in a cell viability assay.

Question: With `COc1ccc(-c2cc3nccn3c(Nc3ncccc3C(N)=O)n2)cc1OC` as the molecule, how does the IC50 read?
Answer: > 8 µM

What follows are molecules tested on SK-PN-DW (assay: cells). Settings: Homo sapiens, SK-PN-DW.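 Note: growth inhibition measured with a viability assay on these cells.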
Type: functional, cell-based, Homo sapiens
Description: SANGER: Inhibition of human SK-PN-DW cell growth in a cell viability assay.

Question: `COc1ccc(-c2cc3nccn3c(Nc3ncccc3C(N)=O)n2)cc1OC` was tested. Which IC50 did it give?
Answer: 5.37 µM

These molecules were tested on KM-H2 (assay: cells). Settings: Homo sapiens, KM-H2.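 Note: growth inhibition of KM-H2 cells, read out by a cell viability assay.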
Type: functional, cell-based, Homo sapiens
Description: SANGER: Inhibition of human KM-H2 cell growth in a cell viability assay.

Question: `COc1ccc(-c2cc3nccn3c(Nc3ncccc3C(N)=O)n2)cc1OC` was tested. Which IC50 did it give?
Answer: > 8 µM

Each molecule was assayed on SCC-15 (assay: cells). Settings: Homo sapiens, SCC-15.
Type: functional, cell-based, Homo sapiens
Description: SANGER: Inhibition of human SCC-15 cell growth in a cell viability assay.

Question: Which IC50 does the source give for `COc1ccc(-c2cc3nccn3c(Nc3ncccc3C(N)=O)n2)cc1OC` here?
Answer: > 8 µM

Each molecule was assayed on LOX IMVI (assay: cells). Settings: Homo sapiens, LOX IMVI.
Type: functional, cell-based, Homo sapiens
Description: SANGER: Inhibition of human LOXIMVI cell growth in a cell viability assay.

Question: For `COc1ccc(-c2cc3nccn3c(Nc3ncccc3C(N)=O)n2)cc1OC`, which IC50 is on record?
Answer: 2.66 µM

Each molecule was assayed on MHH-PREB-1 (assay: cells). Settings: Homo sapiens, MHH-PREB-1.
Type: functional, cell-based, Homo sapiens
Description: SANGER: Inhibition of human MHH-PREB-1 cell growth in a cell viability assay.

Question: How did the IC50 turn out when `COc1ccc(-c2cc3nccn3c(Nc3ncccc3C(N)=O)n2)cc1OC` was run?
Answer: 2.55 µM

Each molecule was assayed on CCRF-CEM (assay: cells). Settings: Homo sapiens, CCRF-CEM.
Type: functional, cell-based, Homo sapiens
Description: SANGER: Inhibition of human CCRF-CEM cell growth in a cell viability assay.

Question: With `COc1ccc(-c2cc3nccn3c(Nc3ncccc3C(N)=O)n2)cc1OC` as the molecule, how does the IC50 read?
Answer: 1.98 µM

Each molecule was assayed on HH (assay: cells). Settings: Homo sapiens, HH.
Type: functional, cell-based, Homo sapiens
Description: SANGER: Inhibition of human HH cell growth in a cell viability assay.

Question: How did the IC50 turn out when `COc1ccc(-c2cc3nccn3c(Nc3ncccc3C(N)=O)n2)cc1OC` was run?
Answer: > 8 µM

Each molecule was assayed on DU-4475 (assay: cells). Settings: Homo sapiens, DU-4475.
Type: functional, cell-based, Homo sapiens
Description: SANGER: Inhibition of human DU-4475 cell growth in a cell viability assay.

Question: Which IC50 does the source give for `COc1ccc(-c2cc3nccn3c(Nc3ncccc3C(N)=O)n2)cc1OC` here?
Answer: 2.17 µM

What follows are molecules tested on SK-N-FI (assay: cells). Settings: Homo sapiens, SK-N-FI.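 Note: cell viability assay measuring growth inhibition of human SK-N-FI cells.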
Type: functional, cell-based, Homo sapiens
Description: SANGER: Inhibition of human SK-N-FI cell growth in a cell viability assay.

Question: How did the IC50 turn out when `COc1ccc(-c2cc3nccn3c(Nc3ncccc3C(N)=O)n2)cc1OC` was run?
Answer: > 8 µM

These molecules were tested on NCI-H1299 (assay: cells). Settings: Homo sapiens.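 Note: growth inhibition of human NCI-H1299 cells, read out by a cell viability assay.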
Type: functional, cell-based
Description: SANGER: Inhibition of human NCI-H1299 cell growth in a cell viability assay.

Question: `COc1ccc(-c2cc3nccn3c(Nc3ncccc3C(N)=O)n2)cc1OC` was tested. Which IC50 did it give?
Answer: > 8 µM
